The source of these data is patent publication EP4682145A1, “BENZOHETEROCYCLIC COMPOUND, AND PREPARATION METHOD THEREFOR AND USE THEREOF” (Cascade Pharmaceuticals, Inc., priority 2023, dated 2024).

The target of this test is T1, human FFAR1 (GPR40) (Homo sapiens, UniProt O14842).
T1 construct: Flag; expressed in transfected cells; host or cells: HEK293T
As to the kind of experiment: NFAT-RE-based reporter gene activity assay (Dual-Glo luciferase) for GPR40 agonistic activity in co-transfected HEK293T cells. It counts as cell-based. Conditions: 4-hour treatment; for Efficacy (%): class symbols. The gist of the method: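 Agonism read as NFAT-RE-driven firefly luciferase over Renilla control (Dual-Glo) after 4 h compound exposure, top concentration 1 µM, 10 half-log steps.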

T1 sequence (O14842 whole entry): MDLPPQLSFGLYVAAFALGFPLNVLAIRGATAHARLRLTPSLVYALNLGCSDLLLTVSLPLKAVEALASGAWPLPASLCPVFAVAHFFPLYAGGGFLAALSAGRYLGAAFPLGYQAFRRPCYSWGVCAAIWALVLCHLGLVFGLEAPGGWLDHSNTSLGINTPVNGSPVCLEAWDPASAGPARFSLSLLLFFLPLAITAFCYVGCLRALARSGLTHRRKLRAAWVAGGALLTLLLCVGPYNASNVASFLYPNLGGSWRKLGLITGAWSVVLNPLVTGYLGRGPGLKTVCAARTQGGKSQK

For the compound `COc1cccc(N2CCC(c3oc4cc(C(CC(=O)O)C5CC5)ccc4c3C(=O)Nc3cccc(Br)c3)CC2)c1` (centres unmarked) [Compound 247], the EC50 – broadly, the concentration that produces a half-maximal response – was 0.1 to 0.5 µM and the “Efficacy (%)” value is on record as “††† (Efficacy (%) > 150)”.
`COc1ccc(F)c(N2CCC(c3oc4cc(C(CC(=O)O)C5CC5)ccc4c3CCOC(C)C)CC2)c1` (centres unmarked) [Compound 393]: the EC50 was 0.1 to 0.5 µM and the “Efficacy (%)” value was “†† (150 ≥ Efficacy (%) > 100)”.
On the same counts, the results for `COc1cccc(N2CCC(c3oc4cc([C@@H](CC(=O)O)C5CC5)ccc4c3C(=O)Nc3cc(Cl)ccc3F)CC2)c1` [Compound 270] are 0.01 to 0.1 µM and “††††”.
For `COc1cccc(N2CCC(c3oc4cc([C@@H](CC(=O)O)C5CC5)ccc4c3C(=O)Nc3cc(OC(F)(F)F)ccc3Cl)CC2)c1` [Compound 277], the EC50 is over 0.5 µM and the “Efficacy (%)” value is “††††”.
Consider `CCC(CC(=O)O)c1ccc2c(-c3cnn(C(C)(C)C)c3)c(C3CCN(c4cccc(OC)c4)CC3)oc2c1` (centres unmarked) [Compound 66], for which the EC50 was in the range of 0.1 to 0.5 µM and the “Efficacy (%)” value is recorded as “†† (150 ≥ Efficacy (%) > 100)”.
The matching figures for `CCc1ccc(Cl)c(NC(=O)c2c(C3CCN(c4cccc(OC)c4)CC3)oc3cc([C@@H](CC(=O)O)C4CC4)ccc23)c1` [Compound 278]: under 0.01 µM and “††††”.
The matching figures for `COc1cccc(N2CCC(c3oc4cc(C(CC(=O)O)C5CC5)ccc4c3C(=O)NC34CC5CC(C)(CC(C)(C5)C3)C4)CC2)c1` (centres unmarked) [Compound 351]: 0.01 to 0.1 µM and “†† (150 ≥ Efficacy (%) > 100)”.
As to `CSc1cccc(N2CCC(c3oc4cc(C(CC(=O)O)C5CC5)ccc4c3-c3ccc(C(C)(C)C)cc3)CC2)c1` (centres unmarked) [Compound 26], the EC50 fell in the range of 0.1 to 0.5 µM and the “Efficacy (%)” value is reported as “†† (150 ≥ Efficacy (%) > 100)”.
Take `COc1cccc(-c2c(C3CCN(c4ccc5c(c4)OCO5)CC3)oc3cc(C(CC(=O)O)C4CC4)ccc23)c1` (centres unmarked) [Compound 211]: the EC50 was 0.1 to 0.5 µM and the “Efficacy (%)” value is “††† (Efficacy (%) > 150)”.
Consider `COc1cccc(N2CCC(c3oc4cc(C(CC(=O)O)C5CC5)ccc4c3-c3cnn(C(C)(C)C)c3)CC2)n1` (centres unmarked) [Compound 79], for which the EC50 is 0.1 to 0.5 µM and the “Efficacy (%)” value is given as “†† (150 ≥ Efficacy (%) > 100)”.
Regarding `COc1ccc(F)c(N2CCC(c3oc4cc(CCC(=O)O)ccc4c3-c3cccc(C(C)(C)C)c3)CC2)c1` [Compound 231], the EC50 fell in the range of 0.1 to 0.5 µM and the “Efficacy (%)” value was “† (100 ≥ Efficacy (%) > 50)”.
Take `CCNC(=O)c1c(C2CCN(c3cc(OC)ccc3F)CC2)oc2cc(C(CC(=O)O)C3CC3)ccc12` (centres unmarked) [Compound 312]: the EC50 was in the range of 0.1 to 0.5 µM and the “Efficacy (%)” value is “† (100 ≥ Efficacy (%) > 50)”.
Turning to `COc1ccc(F)c(N2CCC(c3oc4cc(C(CC(=O)O)C5CC5)ccc4c3C/C=C/C(C)C)CC2)c1` (centres unmarked) [Compound 371], the EC50 fell in the range of 0.1 to 0.5 µM and the “Efficacy (%)” value is on record as “†† (150 ≥ Efficacy (%) > 100)”.
`COc1cccc(N2CCC(c3oc4cc([C@@H](CC(=O)O)C5CC5)ccc4c3-c3csc(OC)n3)CC2)c1` [Compound 105]: the EC50 fell in the range of 0.01 to 0.1 µM and the “Efficacy (%)” value is reported as “†† (150 ≥ Efficacy (%) > 100)”.
The matching figures for `CCC(C)COC(C)c1c(C2CCN(c3cccc(OC)c3)CC2)oc2cc([C@@H](CC(=O)O)C3CC3)ccc12` (some centres unmarked) [Compound 413]: 0.1 to 0.5 µM and “††† (Efficacy (%) > 150)”.
On the same counts, the results for `COc1ccc(F)c(N2CCC(c3oc4cc(C(CC(=O)O)C5CC5)c(F)cc4c3-c3ccc(C(C)(C)C)cc3)CC2)c1` (centres unmarked) [Compound 223] are 0.1 to 0.5 µM and “† (100 ≥ Efficacy (%) > 50)”.
`COc1ccc(N2CCC(c3oc4cc(C(CC(=O)O)C5CC5)ccc4c3-c3cccc(C(C)(C)C)c3)CC2)cc1` (centres unmarked) [Compound 10]: the EC50 is 0.1 to 0.5 µM and the “Efficacy (%)” value is recorded as “†† (150 ≥ Efficacy (%) > 100)”.
For the compound `CC(C)(C)c1ccc(-c2c(C3CCN(c4ccc5c(c4)OCO5)CC3)oc3cc(C(CC(=O)O)C4CC4)ccc23)cc1` (centres unmarked) [Compound 212], the EC50 lay in the range of 0.1 to 0.5 µM and the “Efficacy (%)” value is “†† (150 ≥ Efficacy (%) > 100)”.
On the same counts, the results for `COc1ccc(F)c(N2CCC(c3oc4cc([C@@H](CC(=O)O)C5CC5)ccc4c3-c3cccc(C)c3)CC2)c1` [Compound 158] are 0.1 to 0.5 µM and “†† (150 ≥ Efficacy (%) > 100)”.
The matching figures for `COc1cccc(N2CCC(c3oc4cc([C@@H](CC(=O)O)C5CC5)ccc4c3CN(CC(C)(C)C)C(C)=O)CC2)c1` [Compound 442]: 0.1 to 0.5 µM and “†† (150 ≥ Efficacy (%) > 100)”.
On the same counts, the results for `COc1cccc(N2CCC(c3oc4cc([C@@H](CC(=O)O)C5CC5)ccc4c3C(=O)Nc3cc(NC(C)=O)ccc3Cl)CC2)c1` [Compound 286] are 0.1 to 0.5 µM and “†† (150 ≥ Efficacy (%) > 100)”.
As for `COc1ccc(F)c(N2CCC(c3oc4cc(C(CC(=O)O)C5CC5)ccc4c3-c3ccc(NC(C)C)cc3)CC2)c1` (centres unmarked) [Compound 184], the EC50 is 0.1 to 0.5 µM and the “Efficacy (%)” value was “† (100 ≥ Efficacy (%) > 50)”.
In the case of `COc1cccc(N2CCC(c3oc4cc([C@@H](CC(=O)O)C5CC5)ccc4c3-c3ncc(C(C)C)s3)CC2)c1` [Compound 112], the EC50 was in the range of 0.01 to 0.1 µM and the “Efficacy (%)” value is on record as “†† (150 ≥ Efficacy (%) > 100)”.
On the same counts, the results for `COc1ccc(F)c(N2CCC(c3oc4cc([C@@H](CC(=O)O)C5CC5)ccc4c3C(=O)Nc3cc(F)ccc3Br)CC2)c1` [Compound 342] are at most 0.01 µM and “†† (150 ≥ Efficacy (%) > 100)”.
As to `COc1cccc(N2CCC(c3oc4cc(C(CC(=O)O)C5CC5)ccc4c3C(=O)NCc3ccccc3)CC2)c1` (centres unmarked) [Compound 355], the EC50 was 0.1 to 0.5 µM and the “Efficacy (%)” value was “†† (150 ≥ Efficacy (%) > 100)”.
Consider `COc1cccc(N2CCC(c3oc4cc([C@@H](CC(=O)O)C5CC5)ccc4c3-c3nnc(C(C)(C)C(F)(F)F)o3)CC2)c1` [Compound 49], for which the EC50 was at most 0.01 µM and the “Efficacy (%)” value is recorded as “†† (150 ≥ Efficacy (%) > 100)”.
Consider `COc1ccc(F)c(N2CCC(c3oc4cc(C(CC(=O)O)C5CC5)ccc4c3C=C(C)C)CC2)c1` (centres unmarked) [Compound 370], for which the EC50 lay in the range of 0.1 to 0.5 µM and the “Efficacy (%)” value is given as “†† (150 ≥ Efficacy (%) > 100)”.
Take `COc1cc(N2CCC(c3oc4cc(C(CC(=O)O)C5CC5)ccc4c3-c3ccc(C(C)(C)C)cc3)CC2)ccc1F` (centres unmarked) [Compound 206]: the EC50 was 0.1 to 0.5 µM and the “Efficacy (%)” value is given as “†† (150 ≥ Efficacy (%) > 100)”.
On the same counts, the results for `COc1ccc(C#N)c(N2CCC(c3oc4cc(C(CC(=O)O)C5CC5)ccc4c3-c3cnn(C(C)(C)C)c3)CC2)c1` (centres unmarked) [Compound 44] are 0.1 to 0.5 µM and “†† (150 ≥ Efficacy (%) > 100)”.
On the same counts, the results for `COc1cccc(N2CCC(c3oc4cc(C(CC(=O)O)C5CC5)ccc4c3C(=O)Nc3ncns3)CC2)c1` (centres unmarked) [Compound 293] are 0.1 to 0.5 µM and “†† (150 ≥ Efficacy (%) > 100)”.
On the same counts, the results for `COc1cccc(N2CCC(c3oc4cc([C@@H](CC(=O)O)C5CC5)ccc4c3C(C)OCc3cccs3)CC2)c1` (some centres unmarked) [Compound 421] are 0.1 to 0.5 µM and “††† (Efficacy (%) > 150)”.
As for `COc1ccc(F)c(N2CCC(c3oc4cc([C@@H](CC(=O)O)C5CC5)ccc4c3/C=C/C(C)(C)C)CC2)c1` [Compound 367], the EC50 was at most 0.01 µM and the “Efficacy (%)” value was “†† (150 ≥ Efficacy (%) > 100)”.
In the case of `COc1cccc(N2CCC(c3oc4cc(C(CC(=O)O)C5CC5)ccc4c3-c3nnc(C(C)(C)CC4CCCCC4)o3)CC2)c1` (centres unmarked) [Compound 135], the EC50 lay in the range of 0.01 to 0.1 µM and the “Efficacy (%)” value is “†† (150 ≥ Efficacy (%) > 100)”.
With `COc1ccc(F)c(N2CCC(c3oc4cc(C(CC(=O)O)C5CC5)ccc4c3-c3cccc(C4CC4)c3)CC2)c1` (centres unmarked) [Compound 164], the EC50 is 0.1 to 0.5 µM and the “Efficacy (%)” value is on record as “†† (150 ≥ Efficacy (%) > 100)”.
In the case of `COc1cccc(N2CCC(c3oc4cc([C@@H](CC(=O)O)C5CC5)ccc4c3COc3ccccc3)CC2)c1` [Compound 404], the EC50 was 0.1 to 0.5 µM and the “Efficacy (%)” value is reported as “†† (150 ≥ Efficacy (%) > 100)”.
As to `COc1ccc(F)c(N2CCC(c3oc4cc([C@@H](CC(=O)O)C5CC5)ccc4c3CC=C(C)C)CC2)c1` [Compound 372], the EC50 was in the range of 0.1 to 0.5 µM and the “Efficacy (%)” value was “†† (150 ≥ Efficacy (%) > 100)”.
For `COc1ccc(F)c(N2CCC(c3oc4cc(C(CC(=O)O)C5CC5)ccc4c3C(=O)Nc3ccc(C)cc3)CC2)c1` (centres unmarked) [Compound 321], the EC50 lay within 0.1 to 0.5 µM and the “Efficacy (%)” value was “†† (150 ≥ Efficacy (%) > 100)”.
On to `COc1cccc(N2CCC(c3oc4cc(C(CC(=O)O)C5CC5)ccc4c3C(=O)Nc3c(C)cccc3F)CC2)c1` (centres unmarked) [Compound 252], for which the EC50 was 0.1 to 0.5 µM and the “Efficacy (%)” value is recorded as “†† (150 ≥ Efficacy (%) > 100)”.
As for `COc1cccc(N2CCC(c3oc4cc([C@@H](CC(=O)O)C5CC5)ccc4c3C(C)OCC3CC3)CC2)c1` (some centres unmarked) [Compound 417], the EC50 lay within 0.1 to 0.5 µM and the “Efficacy (%)” value is on record as “††† (Efficacy (%) > 150)”.
On to `COc1ccc(F)c(N2CCC(c3oc4cc(C(CC(=O)O)C5CC5)ccc4c3CCC(C)(C)C)CC2)c1` (centres unmarked) [Compound 388], for which the EC50 lay in the range of 0.1 to 0.5 µM and the “Efficacy (%)” value is reported as “†† (150 ≥ Efficacy (%) > 100)”.
As to `CCCCCCC(C)(C)c1nnc(-c2c(C3CCN(c4cccc(OC)c4)CC3)oc3cc(C(CC(=O)O)C4CC4)ccc23)o1` (centres unmarked) [Compound 452], the EC50 was 0.01 to 0.1 µM and the “Efficacy (%)” value is on record as “†† (150 ≥ Efficacy (%) > 100)”.
Take `COc1cccc(N2CCC(c3oc4cc([C@@H](CC(=O)O)C5CC5)ccc4c3C(OCC(C)C)c3ccc(C)cc3)CC2)c1` (some centres unmarked) [Compound 427]: the EC50 is 0.1 to 0.5 µM and the “Efficacy (%)” value is “††† (Efficacy (%) > 150)”.
On the same counts, the results for `COc1ccc(F)c(N2CCC(c3oc4cc(C(CC(=O)O)C5CC5)ccc4c3-c3cccc(N(CC(C)(C)C)C(C)=O)c3)CC2)c1` (centres unmarked) [Compound 190] are 0.1 to 0.5 µM and “†† (150 ≥ Efficacy (%) > 100)”.
